Assay results as given in the supplement of paper PMC10307832.

Tests used:
Assay in all cases: relative viability (nuclei count vs DMSO), 5 days (fraction); higher = more cells survive
VX-11e + Trametinib = compound: CC1=CN=C(N=C1C2=CNC(=C2)C(=O)N[C@H](CO)C3=CC(=CC=C3)Cl)NC4=C(C=C(C=C4)F)Cl [VX-11e] + CC(=O)Nc1cccc(-n2c(=O)n(C3CC3)c(=O)c3c(Nc4ccc(I)cc4F)n(C)c(=O)c(C)c32)c1 [Trametinib] (partner 0.02 µM)
Method in brief: (§1)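 Relative viability equals treated-well nuclei counts divided by vehicle-well nuclei counts. Counts came from 4× images of lung cancer cell lines grown in 1536-well plates for 5 days after pin-tool dosing on the day after seeding. Dosing used one drug alone or a fixed anchor-drug dose plus five library-drug doses (not always all listed) in √10 steps, and values are medians of duplicate plates.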

VX-11e + Lapatinib = compound: CC1=CN=C(N=C1C2=CNC(=C2)C(=O)N[C@H](CO)C3=CC(=CC=C3)Cl)NC4=C(C=C(C=C4)F)Cl [VX-11e] + CS(=O)(=O)CCNCc1ccc(-c2ccc3ncnc(Nc4ccc(OCc5cccc(F)c5)c(Cl)c4)c3c2)o1 [Lapatinib] (partner 2 µM)
Method in brief: as §1

VX-11e + Phenformin = compound: CC1=CN=C(N=C1C2=CNC(=C2)C(=O)N[C@H](CO)C3=CC(=CC=C3)Cl)NC4=C(C=C(C=C4)F)Cl [VX-11e] + N=C(N)NC(=N)NCCc1ccccc1 [Phenformin] (partner 250 µM)
Method in brief: as §1

VX-11e + Olaparib = compound: CC1=CN=C(N=C1C2=CNC(=C2)C(=O)N[C@H](CO)C3=CC(=CC=C3)Cl)NC4=C(C=C(C=C4)F)Cl [VX-11e] + O=C(c1cc(Cc2n[nH]c(=O)c3ccccc23)ccc1F)N1CCN(C(=O)C2CC2)CC1 [Olaparib] (partner 8 µM)
Method in brief: as §1

Cell Line | relative viability (VX-11e + Trametinib; first compound 0.04 µM) | relative viability (VX-11e + Trametinib; first compound 0.1265 µM) | relative viability (VX-11e + Trametinib; first compound 0.4 µM) | relative viability (VX-11e + Trametinib; first compound 1.265 µM) | relative viability (VX-11e + Trametinib; first compound 4 µM) | relative viability (VX-11e + Lapatinib; first compound 0.4 µM) | relative viability (VX-11e + Lapatinib; first compound 1.265 µM) | relative viability (VX-11e + Lapatinib; first compound 4 µM) | relative viability (VX-11e + Phenformin; first compound 0.04 µM) | relative viability (VX-11e + Phenformin; first compound 0.1265 µM) | relative viability (VX-11e + Phenformin; first compound 0.4 µM) | relative viability (VX-11e + Phenformin; first compound 1.265 µM) | relative viability (VX-11e + Phenformin; first compound 4 µM) | relative viability (VX-11e + Olaparib; first compound 0.04 µM) | relative viability (VX-11e + Olaparib; first compound 0.1265 µM) | relative viability (VX-11e + Olaparib; first compound 0.4 µM) | relative viability (VX-11e + Olaparib; first compound 1.265 µM) | relative viability (VX-11e + Olaparib; first compound 4 µM) | relative viability (VX-11e + Lapatinib; first compound 0.04 µM) | relative viability (VX-11e + Lapatinib; first compound 0.1265 µM)
CAL-12T | 0.235 | 0.243 | 0.285 | 0.229 | 0.228 | 0.544 | 0.565 | 0.348 | 0.677 | 0.507 | 0.504 | 0.41 | 0.194 | 0.802 | 0.718 | 0.732 | 0.618 | 0.316 |  | 
201T | 0.737 | 0.72 | 0.705 | 0.706 | 0.689 | 0.943 | 0.816 | 0.942 | 0.445 | 0.476 | 0.38 | 0.453 | 0.418 | 0.846 | 0.809 | 0.832 | 0.792 | 0.773 | 0.948 | 0.988
LK-2 | 0.831 | 0.668 | 0.806 | 0.234 | 0.312 | 0.812 | 0.522 | 0.439 | 0.241 | 0.601 | 0.311 | 0.189 | 0.173 | 0.688 | 0.783 | 0.676 | 0.657 | 0.45 |  | 0.832
NCI-H1651 | 0.881 | 0.808 | 0.78 | 0.691 | 0.781 | 0.634 | 0.602 | 0.654 | 0.347 | 0.301 | 0.23 | 0.314 | 0.305 | 0.169 | 0.201 | 0.209 | 0.152 | 0.177 | 0.639 | 0.747
LU99A | 0.504 | 0.316 | 0.421 | 0.272 | 0.258 | 0.864 | 0.253 | 0.235 | 0.881 | 0.754 | 0.28 | 0.907 | 0.382 | 0.248 | 0.247 | 0.298 | 0.226 | 0.221 | 1.03 | 0.913
LC-2-ad | 0.998 | 0.856 | 0.881 | 0.755 | 0.537 | 0.881 | 0.399 | 0.547 | 0.525 | 0.461 | 0.395 | 0.372 | 0.467 | 0.713 | 0.669 | 0.746 | 0.673 | 0.687 | 0.929 | 0.792
NCI-H1975 | 0.341 | 0.295 | 0.171 | 0.255 | 0.21 | 0.665 | 0.811 | 0.342 | 0.443 | 0.362 | 0.261 | 0.393 | 0.199 | 0.84 | 0.808 | 0.806 | 0.803 | 0.31 | 0.925 | 0.862
NCI-H460 | 0.134 | 0.161 | 0.0116 | 0.0437 | 0.0311 | 0.823 | 0.542 | 0.0703 | 0.588 | 0.471 | 0.127 | 0.174 | 0.0711 | 0.427 | 0.429 |  | 0.315 | 0.236 | 1.13 | 0.85
NCI-H1666 | 0.866 | 0.77 |  | 0.848 | 0.726 | 0.467 | 0.43 | 0.388 | 0.556 | 0.554 | 0.478 | 0.569 | 0.503 | 0.756 | 0.77 |  | 0.742 | 0.649 | 0.713 | 0.99
EKVX | 0.385 | 0.353 | 0.293 | 0.395 | 0.207 | 0.189 | 0.108 | 0.144 | 0.211 | 0.237 | 0.13 | 0.216 | 0.197 | 0.836 | 0.834 | 0.713 | 0.94 | 0.451 | 0.205 | 0.184
NCI-H1355 | 0.406 | 0.411 | 0.372 | 0.33 | 0.221 | 0.879 | 0.728 | 0.48 | 0.417 | 0.435 | 0.34 | 0.379 | 0.348 | 0.735 | 0.759 | 0.655 | 0.554 | 0.395 | 0.613 | 0.948
SK-LU-1 | 0.427 | 0.332 | 0.179 | 0.25 | 0.274 | 0.524 | 0.752 | 0.272 | 0.474 | 0.492 |  | 0.356 | 0.156 | 0.537 | 0.446 | 0.394 | 0.365 | 0.239 | 0.897 | 0.744
NCI-H727 | 0.415 | 0.374 | 0.379 | 0.365 | 0.346 | 1.19 | 0.501 | 0.307 | 0.439 | 0.475 | 0.451 | 0.359 | 0.353 | 0.626 | 0.593 | 0.747 | 0.678 | 0.457 | 0.699 | 0.591
NCI-H2126 | 0.543 | 0.539 | 0.575 | 0.523 | 0.473 | 0.752 | 0.742 | 0.599 | 0.48 | 0.512 |  | 0.567 | 0.467 | 0.885 | 0.874 | 0.864 | 0.879 | 0.751 |  | 0.752
NCI-H596 | 0.754 | 0.751 | 0.712 | 0.645 | 0.556 | 0.933 | 0.917 | 0.774 | 0.648 | 0.791 | 0.8 | 0.369 | 0.599 | 0.594 | 0.657 | 0.688 | 0.543 | 0.615 | 1.2 | 0.938
PC-14 | 0.734 | 0.697 | 0.624 | 0.413 | 0.216 | 0.251 | 0.35 | 0.203 | 0.539 | 0.552 | 0.196 | 0.472 | 0.239 | 0.269 | 0.261 | 0.222 | 0.22 | 0.214 | 0.275 | 0.327
NCI-H1793 |  | 0.316 |  | 0.344 | 0.27 |  | 0.397 | 0.278 | 0.372 | 0.314 |  | 0.34 | 0.245 |  | 0.788 |  | 0.751 | 0.313 |  | 0.611
NCI-H1915 | 0.305 | 0.284 | 0.233 | 0.204 | 0.114 | 0.984 | 0.976 | 0.808 | 0.401 | 0.343 | 0.291 | 0.298 | 0.235 | 0.277 | 0.23 | 0.305 | 0.225 | 0.231 | 0.981 | 0.92
NCI-H1437 | 0.539 | 0.472 | 0.574 | 0.358 | 0.305 | 0.35 | 0.291 | 0.228 | 0.334 | 0.257 | 0.226 | 0.297 | 0.225 | 0.621 | 0.619 | 0.653 | 0.529 | 0.476 | 0.755 | 0.754
NCI-H650 | 1.04 | 0.958 | 0.994 | 0.64 | 0.381 | 0.944 |  | 0.909 | 0.496 | 0.441 | 0.491 | 0.442 | 0.446 | 0.512 | 0.417 | 0.466 | 0.486 | 0.537 |  | 0.894
NCI-H322M | 0.468 | 0.484 | 0.426 | 0.586 | 0.46 | 0.674 | 0.436 | 0.456 | 0.691 | 0.507 | 0.7 | 0.661 | 0.534 | 0.705 | 0.71 | 0.525 | 0.752 | 0.54 | 0.581 | 
LOU-NH91 | 0.813 | 0.73 |  | 0.768 | 0.691 |  | 0.565 | 0.667 | 0.65 | 0.721 | 0.312 | 0.468 | 0.569 | 0.887 | 0.884 |  | 0.901 | 0.839 | 0.66 | 0.673
EPLC-272H | 0.268 | 0.299 |  | 0.225 | 0.173 | 0.714 | 0.739 | 0.48 | 0.322 | 0.22 |  | 0.32 | 0.225 | 0.771 | 0.833 | 0.588 | 0.38 | 0.219 | 0.844 | 0.577
NCI-H2009 | 0.22 | 0.209 | 0.247 | 0.162 | 0.169 | 0.729 | 0.265 | 0.438 | 0.575 | 0.535 | 0.481 | 0.251 | 0.178 | 0.684 | 0.635 | 0.805 | 0.769 | 0.378 | 0.944 | 0.891
BEN | 1.08 | 0.845 | 1.06 | 0.798 | 1.1 | 0.888 | 0.45 | 0.728 |  | 0.267 | 0.256 | 0.299 | 0.253 | 1.04 | 0.935 | 1.11 | 0.904 | 0.994 |  | 0.637
NCI-H1734 | 0.619 | 0.675 | 0.536 | 0.557 | 0.375 | 0.745 | 0.805 | 0.46 | 0.369 | 0.391 | 0.323 | 0.231 | 0.209 | 0.632 | 0.601 | 0.607 | 0.542 | 0.365 | 0.808 | 1.05
NCI-H3122 | 0.236 | 0.239 | 0.177 | 0.29 | 0.148 | 0.855 | 0.892 | 0.626 | 0.408 | 0.358 |  | 0.335 | 0.254 | 0.717 | 0.661 | 0.689 | 0.558 | 0.468 | 1.07 | 0.98
NCI-H661 | 0.568 | 0.542 | 0.476 | 0.506 | 0.376 | 0.446 | 0.386 | 0.314 | 0.242 | 0.324 | 0.275 | 0.293 | 0.27 | 0.779 | 0.777 | 0.719 | 0.724 | 0.61 | 0.527 | 0.5
